Reference: PMC12348585, “Semi-Synthesis, Anti-Leukemia Activity, and Docking Study of Derivatives from 3α,24-Dihydroxylup-20(29)-en-28-Oic Acid” (Molecules, 2025)

Columns and labels:
[1] = Cell viability assay in normal mononuclear cells; format: cell-based, human; conditions: human
Procedure: (§1) All compounds were dissolved in dimethyl sulfoxide (DMSO) at a concentration of 20 mg/mL. In all assays, culture medium containing 0.1% DMSO was used as the negative control, while dasatinib was included as the positive control. Normal mononuclear cells (MNCs) were included as the normal cell control. All experiments were performed in triplicate. Normal mononuclear cells (MNCs) were isolated from peripheral blood mononuclear cells obtained from healthy human donors. Cell collection was conducted in accordance with institutional guidelines, including written informed consent from each participant. All procedures were approved by Ethics and Scientific Committee of the Mexican Institute of Social Security (IMSS, ethical approval number: CNIC R-2021-785-025). The MNCs were purified using FicollPaque Plus (Pharmacia Biotech, Uppsala, Sweden) by centrifugation at 400× g for 30 min at room temperature, following the manufacturer’s protocol. The resulting cells were resuspended in RPMI-1640 medium supplemented with 10% fetal bovine serum (FBS) and counted using a hemocytometer after trypan blue staining, confirming a viability of 95% [56]. […] After incubation, both leukemic cells and MNCs were collected, washed with phosphate-buffered saline (PBS), and stained with DAPI (500 ng/mL) for 15 min in darkness, following the manufacturer’s instructions. Fluorescence was analyzed using a FACSVerse flow cytometer (BD Bioscience, San Jose, CA, USA). Flow cytometry data were analyzed using FlowJo^TM software (version 10.9). […] All experiments were performed in triplicate, and results were expressed as means ± standard errors of the means (SEMs). Statical analysis was performed using one-way analysis of variance (ANOVA), followed by Dunnett’s post hoc test to compare treated groups against the control.

[2] = test system: leukemia cell lines (CCRF-CEM, REH, JURKAT, MOLT-4, THP-1); assay: Cell viability assay, all leukemia cell lines tested (summary statements); format: cell-based; conditions: 48 h, summary over CCRF-CEM, REH, JURKAT, MOLT-4, THP-1
Procedure: (§2) Cell lines were cultured in RPMI 1640 medium (Roswell Park Memorial Institute medium) supplemented with 10% fetal bovine serum (FBS) and 1% penicillin–streptomycin. Cultures were maintained at 37 °C in a humidified incubator with 5% CO2. All biological evaluations were performed using cell between passages 3 and 4. All compounds were dissolved in dimethyl sulfoxide (DMSO) at a concentration of 20 mg/mL. In all assays, culture medium containing 0.1% DMSO was used as the negative control, while dasatinib was included as the positive control. Normal mononuclear cells (MNCs) were included as the normal cell control. All experiments were performed in triplicate. Leukemic cell lines and normal mononuclear cells (MNCs) were used to evaluate the cytotoxicity of the compounds. Leukemic cells (1 × 10^5 cells/well) were cultured in 96-well plates and treated with increasing concentrations of compounds (0.02, 0.2, 2.0, and 20 µM) for 48 h. After incubation, both leukemic cells and MNCs were collected, washed with phosphate-buffered saline (PBS), and stained with DAPI (500 ng/mL) for 15 min in darkness, following the manufacturer’s instructions. Fluorescence was analyzed using a FACSVerse flow cytometer (BD Bioscience, San Jose, CA, USA). Flow cytometry data were analyzed using FlowJo^TM software (version 10.9). […] All experiments were performed in triplicate, and results were expressed as means ± standard errors of the means (SEMs). Statical analysis was performed using one-way analysis of variance (ANOVA), followed by Dunnett’s post hoc test to compare treated groups against the control.

REH = assay: Cell viability assay (DAPI, flow cytometry), REH; format: cell-based; conditions: for IC50: Homo sapiens, REH, 48 h, mean ± SEM, N/A: not active
Procedure: as §2

[3] = test system: peripheral blood mononuclear cells (MNCs); assay: Cell viability assay in normal mononuclear cells; format: cell-based, human
Procedure: as §1

CCRF-CEM = assay: Cell viability assay (DAPI, flow cytometry), CCRF-CEM; format: cell-based
Procedure: as §2

JURKAT = assay: Cell viability assay (DAPI, flow cytometry), JURKAT; format: cell-based
Procedure: as §2

MOLT-4 = assay: Cell viability assay (DAPI, flow cytometry), MOLT-4; format: cell-based
Procedure: as §2

THP-1 = assay: Cell viability assay (DAPI, flow cytometry), THP-1; format: cell-based
Procedure: as §2

K562 cells = test system: K562 cells; set-up: method as in PMID 32178533; conditions: cited from earlier work
JURKAT cells = conditions: read-out: IC50 in JURKAT cells; cited from earlier work
[4] = test system: normal peripheral blood lymphocytes (PBLs); conditions: cited from earlier work
[5] = ratio of IC50 in the MNC line over IC50 in the leukemia cell line

Q: What does the source list for `C=C(C)C1CCC2(C(=O)O)CCC3(C)C(CCC4C5(C)CCC(O)C(C)(CO)C5CCC43C)C12` (stereo not drawn) [Compound T1, 3α,24-dihydroxylup-20(29)-en-28-oic acid]?
A: IC50 at 48 h [1]: > 200 µM; IC50 across all leukemia cell lines tested [2]: no activity

Q: Which IC50 (REH) does the source give for `C=C(C)C1CCC2(C(=O)O)CCC3(C)C(CCC4C5(C)CCC(OC)C(C)(CO)C5CCC43C)C12` (stereo not drawn) [Compound T1a, 3α-methoxy-24-hydroxylup-20(29)-en-28-oic acid] here?
A: > 20 µM

Q: And the “IC50 MNCs” value [3]?
A: no activity

Q: For `C=C(C)C1CCC2(C(=O)O)CCC3(C)C(CCC4C5(C)CCC(OC(C)=O)C(C)(CO)C5CCC43C)C12` (stereo not drawn) [Compound T1e, 3α-acetyl-24-hydroxylup-20(29)-en-28-oic acid], which “IC50 MNCs” value [3] is on record?
A: no activity

Q: And the “IC50 across all leukemia cell lines tested” value [2]?
A: no activity

Q: For `C=C(C=O)C1CCC2(C(=O)O)CCC3(C)C(CCC4C5(C)CCC(OC)C(C)(CO)C5CCC43C)C12` (stereo not drawn) [Compound T1b, 3α-methoxy-24-hydroxy-30-oxolup-20(29)-en-28-oic acid], which IC50 (CCRF-CEM; Homo sapiens, CCRF-CEM, 48 h, mean ± SEM, N/A: not active) is on record?
A: 6.87 ± 0.6 µM

Q: And the “SI: selectivity index, CCRF-CEM” value (CCRF-CEM; [5])?
A: 1.59

Q: What about the IC50 (REH) of the same molecule?
A: 9.46 ± 3.2 µM

Q: And the “SI: selectivity index, REH” value (REH; [5])?
A: 1.13

Q: And the IC50 (JURKAT; Homo sapiens, Jurkat, 48 h, mean ± SEM, N/A: not active)?
A: 15 ± 1.6 µM

Q: And the “SI: selectivity index, JURKAT” value (JURKAT; [5])?
A: 0.72

Q: What about the IC50 (MOLT-4; Homo sapiens, MOLT-4, 48 h, mean ± SEM, N/A: not active) of the same molecule?
A: 4.05 ± 0.1 µM

Q: And the “SI: selectivity index, MOLT-4” value (MOLT-4; [5])?
A: 2.66

Q: What about the IC50 (THP-1; Homo sapiens, THP-1, 48 h, mean ± SEM, N/A: not active) of the same molecule?
A: 11.04 ± 0.1 µM

Q: And the “SI: selectivity index, THP-1” value (THP-1; [5])?
A: 0.97

Q: And the IC50 at 48 h [1]?
A: 10.8 ± 1.3 µM

Q: What about the IC50 ([2]; read-out: IC50 across all leukemia cell lines tested) of the same molecule?
A: 4.05 to 15 µM

Q: Which results are given for `C=C(C=O)[C@@H]1CC[C@]2(C)CC[C@]3(C)[C@H](CC[C@@H]4[C@@]5(C)CC[C@H](O)C(C)(C)[C@@H]5CC[C@]43C)[C@@H]12` [3β-hydroxylup-20(29)-en-30-al]?
A: IC50 (K562 cells): 19.5 ± 0.47 µM; IC50 (JURKAT cells): 11.7 ± 1.06 µM; reduction of viability of normal peripheral blood lymphocytes (PBLs) [4]: 32.17%
